Measurements as given in PubChem BioAssay (NCI).
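Assay format: 96-well plates, 48-hour exposure. GI50 marks 50% less growth. TGI denotes the concentration required for complete inhibition of growth.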

Experiments:
Assay in all cases: NCI tumour cell line growth inhibition, 48 h
[1] = tested on: SW-620 colon
[2] = tested on: MOLT-4 leukemia
[3] = tested on: UACC-62 melanoma
[4] = tested on: COLO 205 colon
[5] = tested on: MDA-MB-435
[6] = tested on: SK-MEL-5 melanoma
[7] = tested on: PC-3 prostate
[8] = tested on: ACHN renal
[9] = tested on: HS 578T breast
[10] = tested on: IGROV1 ovarian
[11] = tested on: RXF 393 renal
[12] = tested on: A549 NSCLC
[13] = tested on: OVCAR-3 ovarian
[14] = tested on: HOP-92 NSCLC
[15] = tested on: SN12C renal
[16] = tested on: HCC-2998 colon
[17] = tested on: OVCAR-5 ovarian
[18] = tested on: SK-MEL-2 melanoma
[19] = tested on: SF-295 CNS
[20] = tested on: MCF7 breast
[21] = tested on: OVCAR-8 ovarian
[22] = tested on: M14 melanoma
[23] = tested on: HT29 colon
[24] = tested on: MALME-3M melanoma
[25] = tested on: NCI-H460 lung
[26] = tested on: SF-539 CNS
[27] = tested on: SF-268 CNS
[28] = tested on: 786-0 renal
[29] = tested on: SNB-19 CNS
[30] = tested on: CAKI-1 renal
[31] = tested on: UACC-257 melanoma
[32] = tested on: DU-145 prostate
[33] = tested on: NCI/ADR-RES ovarian
[34] = tested on: RPMI-8226 leukemia
[35] = tested on: SK-MEL-28 melanoma
[36] = tested on: CCRF-CEM leukemia
[37] = tested on: SNB-75 CNS
[38] = tested on: T-47D breast
[39] = tested on: OVCAR-4 ovarian
[40] = tested on: LOX IMVI melanoma
[41] = tested on: EKVX NSCLC
[42] = tested on: HCT-15 colon
[43] = tested on: KM12 colon
[44] = tested on: HCT-116 colon
[45] = tested on: A498 renal
[46] = tested on: K-562 leukemia
[47] = tested on: MDA-MB-468 breast
[48] = tested on: TK-10 renal
[49] = tested on: NCI-H226 lung
[50] = tested on: U251 CNS
[51] = tested on: HL-60(TB) leukemia
[52] = tested on: NCI-H23 lung
[53] = tested on: BT-549 breast
[54] = tested on: SK-OV-3 ovarian
[55] = tested on: HOP-62 NSCLC
[56] = tested on: NCI-H522 lung

CCCCCCCCCCCCCCCCCCCC(=O)NCCc1c[nH]c2ccc(OC(=O)NOCCOCCOCCOCCOCCOCCOCCOCCOCCOCCOCCOCCOCCOCCOCCOCCOCCOCCOCCOCCOCCOCCOC)cc12
GI50 [1]: 17.8 µM | TGI [1]: 33.1 µM | GI50 [2]: 5.32 µM | TGI [2]: 24.9 µM | GI50 [3]: 17 µM | TGI [3]: 31.4 µM | GI50 [4]: 16.6 µM | TGI [4]: 30.9 µM | GI50 [5]: 20.6 µM | TGI [5]: 48.6 µM | GI50 [6]: 13.5 µM | TGI [6]: 26.5 µM | GI50 [7]: 18.3 µM | TGI [7]: 70.9 µM | GI50 [8]: 45.7 µM | TGI [8]: > 100 µM | GI50 [9]: 16.6 µM | TGI [9]: 41.2 µM | GI50 [10]: 21.4 µM | TGI [10]: 57.1 µM | GI50 [11]: 19.7 µM | TGI [11]: 53.6 µM | GI50 [12]: 17.7 µM | TGI [12]: 47.9 µM | GI50 [13]: 13.2 µM | TGI [13]: 53.3 µM | GI50 [14]: 6.3 µM | TGI [14]: 44.7 µM | GI50 [15]: 15.1 µM | TGI [15]: 39.5 µM | GI50 [16]: 15.6 µM | TGI [16]: 30 µM | GI50 [17]: 17.3 µM | TGI [17]: 41.9 µM | GI50 [18]: 12.8 µM | TGI [18]: 26 µM | GI50 [19]: 17.8 µM | TGI [19]: 36.7 µM | GI50 [20]: 11 µM | TGI [20]: 28.5 µM | GI50 [21]: 16.4 µM | TGI [21]: 46.2 µM | GI50 [22]: 17.5 µM | TGI [22]: 35.2 µM | GI50 [23]: 15.6 µM | TGI [23]: 30.8 µM | GI50 [24]: 14.4 µM | TGI [24]: 29.3 µM | GI50 [25]: 23.4 µM | TGI [25]: 79.4 µM | GI50 [26]: 17.9 µM | TGI [26]: 40 µM | GI50 [27]: 14.8 µM | TGI [27]: 52.7 µM | GI50 [28]: 31 µM | TGI [28]: 89 µM | GI50 [29]: 20.3 µM | TGI [29]: 51.7 µM | GI50 [30]: > 100 µM | TGI [30]: > 100 µM | GI50 [31]: 14.7 µM | TGI [31]: 30.2 µM | GI50 [32]: 28 µM | TGI [32]: > 100 µM | GI50 [33]: > 100 µM | TGI [33]: > 100 µM | GI50 [34]: 11.8 µM | TGI [34]: 37.6 µM | GI50 [35]: 15.9 µM | TGI [35]: 33.9 µM | GI50 [36]: 13.5 µM | TGI [36]: 33.8 µM | GI50 [37]: 26.9 µM | TGI [37]: 86 µM | GI50 [38]: 9.98 µM | TGI [38]: 23.2 µM | GI50 [39]: 18.7 µM | TGI [39]: 87.7 µM | GI50 [40]: 14.9 µM | TGI [40]: 28.5 µM | GI50 [41]: 20.9 µM | TGI [41]: 88.4 µM | GI50 [42]: 54.4 µM | TGI [42]: > 100 µM | GI50 [43]: 19.8 µM | TGI [43]: 41.2 µM | GI50 [44]: 17.4 µM | TGI [44]: 38.2 µM | GI50 [45]: 25.9 µM | TGI [45]: 89.9 µM | GI50 [46]: 17.7 µM | TGI [46]: 70.9 µM | GI50 [47]: 11.9 µM | TGI [47]: 26.3 µM | GI50 [48]: 19.5 µM | TGI [48]: 56.1 µM | GI50 [49]: 17.4 µM | TGI [49]: 38.5 µM | GI50 [50]: 16.7 µM | TGI [50]: 32.8 µM | GI50 [51]: 14.4 µM | TGI [51]: 32.7 µM | GI50 [52]: 19.9 µM | TGI [52]: 46.2 µM | GI50 [53]: 14.1 µM | TGI [53]: 28.5 µM | GI50 [54]: 19.1 µM | TGI [54]: 41.3 µM | GI50 [55]: 17.8 µM | TGI [55]: 36.3 µM | GI50 [56]: 14.9 µM | TGI [56]: 28.8 µM
